Measurements reported in the supplement of paper PMC10307832.

Experiments:
Test in all cases: relative viability (nuclei count vs DMSO), 5 days (fraction); higher = more cells survive
NCI-H2023 = test system: NCI-H2023
Method in brief: (§1)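 A single step with final 0.05% Triton X-100, 1% formaldehyde and 1 ug/ml Hoechst fixed the cells and stained nuclei 5 days after treatment. Lung cancer cell lines in 1536-well plates had been treated by pin tool the day after seeding with one drug alone or a fixed anchor-drug dose plus five library-drug doses (not always all listed) in √10 steps, and nuclei were counted on 4× images. Relative viability is the ratio of nuclei in treated wells to nuclei in vehicle wells, taken as the median of duplicate plates.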

NCI-H2405 = test system: NCI-H2405
Method in brief: as §1

NCI-H1792 = test system: NCI-H1792
Method in brief: as §1

HARA = test system: HARA
Method in brief: as §1

SK-LU-1 = test system: SK-LU-1
Method in brief: as §1

NCI-H2085 = test system: NCI-H2085
Method in brief: as §1

NCI-H727 = test system: NCI-H727
Method in brief: as §1

NCI-H1437 = test system: NCI-H1437
Method in brief: as §1

NCI-H661 = test system: NCI-H661
Method in brief: as §1

COR-L23 = test system: COR-L23
Method in brief: as §1

COR-L 105 = test system: COR-L 105
Method in brief: as §1

UMC-11 = test system: UMC-11
Method in brief: as §1

NCI-H1944 = test system: NCI-H1944
Method in brief: as §1

NCI-H358 = test system: NCI-H358
Method in brief: as §1

LCLC-103H = test system: LCLC-103H
Method in brief: as §1

EPLC-272H = test system: EPLC-272H
Method in brief: as §1

HCC-366 = test system: HCC-366
Method in brief: as §1

HCC-15 = test system: HCC-15
Method in brief: as §1

NCI-H1975 = test system: NCI-H1975
Method in brief: as §1

NCI-H1395 = test system: NCI-H1395
Method in brief: as §1

HCC-78 = test system: HCC-78
Method in brief: as §1

HCC-827 = test system: HCC-827
Method in brief: as §1

## O=c1[nH]c2ccccc2n1C1CCN(CCCC(c2ccc(F)cc2)c2ccc(F)cc2)CC1 [Pimozide] + Cc1nc(Nc2ncc(C(=O)Nc3c(C)cccc3Cl)s2)cc(N2CCN(CCO)CC2)n1 [Dasatinib] (partner 0.075 µM)
NCI-H2023; first compound 0.08 µM
  relative viability: 0.497
NCI-H2023; first compound 0.253 µM
  relative viability: 0.547
NCI-H2023; first compound 0.8 µM
  relative viability: 0.518
NCI-H2023; first compound 2.53 µM
  relative viability: 0.438
NCI-H2023; first compound 8 µM
  relative viability: 0.451
NCI-H2405; first compound 0.08 µM
  relative viability: 0.219
NCI-H2405; first compound 0.253 µM
  relative viability: 0.228
NCI-H2405; first compound 0.8 µM
  relative viability: 0.198
NCI-H2405; first compound 2.53 µM
  relative viability: 0.187
NCI-H2405; first compound 8 µM
  relative viability: 0.188
NCI-H1792; first compound 0.08 µM
  relative viability: 0.89
NCI-H1792; first compound 0.253 µM
  relative viability: 0.823
NCI-H1792; first compound 0.8 µM
  relative viability: 0.769
NCI-H1792; first compound 2.53 µM
  relative viability: 0.973
NCI-H1792; first compound 8 µM
  relative viability: 0.849
HARA; first compound 0.253 µM
  relative viability: 0.262
HARA; first compound 0.8 µM
  relative viability: 0.275
HARA; first compound 2.53 µM
  relative viability: 0.247
HARA; first compound 8 µM
  relative viability: 0.304
SK-LU-1; first compound 0.08 µM
  relative viability: 0.2
SK-LU-1; first compound 0.253 µM
  relative viability: 0.21
SK-LU-1; first compound 0.8 µM
  relative viability: 0.184
SK-LU-1; first compound 2.53 µM
  relative viability: 0.186
SK-LU-1; first compound 8 µM
  relative viability: 0.168
NCI-H2085; first compound 0.08 µM
  relative viability: 0.209
NCI-H2085; first compound 0.253 µM
  relative viability: 0.249
NCI-H2085; first compound 0.8 µM
  relative viability: 0.221
NCI-H2085; first compound 2.53 µM
  relative viability: 0.232
NCI-H2085; first compound 8 µM
  relative viability: 0.257
NCI-H727; first compound 0.08 µM
  relative viability: 0.36
NCI-H727; first compound 0.253 µM
  relative viability: 0.347
NCI-H727; first compound 0.8 µM
  relative viability: 0.4
NCI-H727; first compound 2.53 µM
  relative viability: 0.358
NCI-H727; first compound 8 µM
  relative viability: 0.405
NCI-H1437; first compound 0.08 µM
  relative viability: 0.483
NCI-H1437; first compound 0.253 µM
  relative viability: 0.43
NCI-H1437; first compound 0.8 µM
  relative viability: 0.402
NCI-H1437; first compound 2.53 µM
  relative viability: 0.289
NCI-H1437; first compound 8 µM
  relative viability: 0.249
NCI-H661; first compound 0.08 µM
  relative viability: 0.782
NCI-H661; first compound 0.253 µM
  relative viability: 0.828
NCI-H661; first compound 0.8 µM
  relative viability: 0.826
NCI-H661; first compound 2.53 µM
  relative viability: 0.725
NCI-H661; first compound 8 µM
  relative viability: 0.611
COR-L23; first compound 0.08 µM
  relative viability: 0.58
COR-L23; first compound 0.253 µM
  relative viability: 0.468
COR-L23; first compound 0.8 µM
  relative viability: 0.53
COR-L23; first compound 2.53 µM
  relative viability: 0.49
COR-L23; first compound 8 µM
  relative viability: 0.455
COR-L 105; first compound 0.253 µM
  relative viability: 0.427
COR-L 105; first compound 0.8 µM
  relative viability: 0.411
COR-L 105; first compound 2.53 µM
  relative viability: 0.293
COR-L 105; first compound 8 µM
  relative viability: 0.301
UMC-11; first compound 0.08 µM
  relative viability: 0.46
UMC-11; first compound 0.253 µM
  relative viability: 0.45
UMC-11; first compound 0.8 µM
  relative viability: 0.468
UMC-11; first compound 2.53 µM
  relative viability: 0.431
UMC-11; first compound 8 µM
  relative viability: 0.424
NCI-H1944; first compound 0.08 µM
  relative viability: 0.212
NCI-H1944; first compound 0.253 µM
  relative viability: 0.203
NCI-H1944; first compound 0.8 µM
  relative viability: 0.183
NCI-H1944; first compound 2.53 µM
  relative viability: 0.225
NCI-H1944; first compound 8 µM
  relative viability: 0.197
NCI-H358; first compound 0.08 µM
  relative viability: 0.16
NCI-H358; first compound 0.253 µM
  relative viability: 0.199
NCI-H358; first compound 0.8 µM
  relative viability: 0.157
NCI-H358; first compound 2.53 µM
  relative viability: 0.156
NCI-H358; first compound 8 µM
  relative viability: 0.172
LCLC-103H; first compound 0.08 µM
  relative viability: 0.531
LCLC-103H; first compound 0.253 µM
  relative viability: 0.373
LCLC-103H; first compound 0.8 µM
  relative viability: 0.371
LCLC-103H; first compound 2.53 µM
  relative viability: 0.518
LCLC-103H; first compound 8 µM
  relative viability: 0.549
EPLC-272H; first compound 0.08 µM
  relative viability: 0.298
EPLC-272H; first compound 0.253 µM
  relative viability: 0.322
EPLC-272H; first compound 0.8 µM
  relative viability: 0.385
EPLC-272H; first compound 2.53 µM
  relative viability: 0.293
EPLC-272H; first compound 8 µM
  relative viability: 0.215
HCC-366; first compound 0.08 µM
  relative viability: 0.613
HCC-366; first compound 0.253 µM
  relative viability: 0.644
HCC-366; first compound 0.8 µM
  relative viability: 0.625
HCC-366; first compound 2.53 µM
  relative viability: 0.615
HCC-366; first compound 8 µM
  relative viability: 0.714
HCC-15; first compound 0.08 µM
  relative viability: 0.651
HCC-15; first compound 0.253 µM
  relative viability: 0.577
HCC-15; first compound 0.8 µM
  relative viability: 0.551
HCC-15; first compound 2.53 µM
  relative viability: 0.565
HCC-15; first compound 8 µM
  relative viability: 0.495
NCI-H1975; first compound 0.08 µM
  relative viability: 0.415
NCI-H1975; first compound 0.253 µM
  relative viability: 0.342
NCI-H1975; first compound 0.8 µM
  relative viability: 0.345
NCI-H1975; first compound 2.53 µM
  relative viability: 0.346
NCI-H1975; first compound 8 µM
  relative viability: 0.294
NCI-H1395; first compound 0.08 µM
  relative viability: 0.388
NCI-H1395; first compound 0.253 µM
  relative viability: 0.382
NCI-H1395; first compound 0.8 µM
  relative viability: 0.355
NCI-H1395; first compound 2.53 µM
  relative viability: 0.403
NCI-H1395; first compound 8 µM
  relative viability: 0.361
HCC-78; first compound 0.08 µM
  relative viability: 0.387
HCC-78; first compound 0.8 µM
  relative viability: 0.327
HCC-78; first compound 2.53 µM
  relative viability: 0.345
HCC-78; first compound 8 µM
  relative viability: 0.373
HCC-827; first compound 0.253 µM
  relative viability: 0.265
HCC-827; first compound 0.8 µM
  relative viability: 0.327
HCC-827; first compound 2.53 µM
  relative viability: 0.32
HCC-827; first compound 8 µM
  relative viability: 0.34
